Results from US6861419B2, “Substituted 1, 4-thiazepine and analogs as activators of caspases and inducers of apoptosis and the use thereof” (Cytovia, Inc., priority 2000, dated 2005).

Key:
T-47D = experiment: Caspase cascade activation (N-(Ac-DEVD)-N'-ethoxycarbonyl-R110 fluorogenic substrate) in T-47D cells; type: cell-based; settings: T47D; human breast cancer cell line T-47D, 24 hours incubation with compound, 3 hour substrate incubation; read-out: Caspase Potency EC50 (nM) T-47D
Experimental: (§1) Human breast cancer cell lines T-47D and ZR-75-1 were grown according to media component mixtures designated by American Type Culture Collection +10% fetal calf sera (FCS) (Life Technologies, Inc.) in a 5% CO2-95% humidity incubator as 37° C. The T-47 and ZR-75-1 cells were maintained at a cell density between 30 and 80% confluency at a cell density of 0.1 to 0.6×10^6 cells/mL. Cells were harvested at 600 xg and resuspended at 0.65×10^6 cells/mL into appropriate media +10% FCS. An aliquot of 45 μL of cells was added to a well of a 96-well microtiter plate containing 5 μL of a 10% DMSO in RPMI-1640 media solution containing 1.6 to 100 μM of test compound (0.16 to 10 μM final).
(§2) An aliquot of 45 μL of cells was added to a well of a 96-well microtiter plate containing 5 μL of a 10% DMSO in RPMI-1640 media solution without test compound as the control sample. The samples were mixed by agitation and then incubated at 37° C. for 24 hours in a 5% CO2-95% humidity incubator. After incubation, the samples were removed from the incubator and 50 μL of a solution w containing […] of N-(Ac-DEVD)-N′-ethoxycarbonyl-R110 (SEQ ID NO:1) fluorogenic substrate (Cytovia, Inc.; WO99/18856), 20% sucrose (Sigma), 20 mM dithiothreitol (DTT) (Sigma), 200 mM NaCl (Sigma), 40 mM Na piperazine-N,N′-bis[2-ethanesulfonic acid] (PIPES) buffer pH 7.2 (Sigma), and 500 μg/mL lysolecithin (Calbiochem) was added. The samples were mixed by agitation and incubated at room temperature. Using a fluorescent plate reader (Model 1420 Wallac Instruments), an initial reading (T=0) was made approximately 1-2 minutes after addition of the substrate solution, employing excitation at 485 nm and emission at 530 nm, to determine the background fluorescence of the control sample. After the 3 hour incubation, the samples were read for fluorescence as above (T=3 hours).
(§3) The Relative Fluorescence Unit (RFU) values were used to calculate the sample readings as follows: RFU(T=3h)−Control RFU(T=0)=Net RFU(T=3h)
(§4) The level of caspase cascade activation was determined by the ratio of the net RFU value for the test compound to that of the control samples. The EC50 (nM) was determined by a sigmoidal dose-response calculation (Prism 2.0, GraphPad Software, Inc.). The compounds of the invention were determined to have caspase cascade activating effects by proceeding as in Example 8.

ZR-75-1 = experiment: Caspase cascade activation (N-(Ac-DEVD)-N'-ethoxycarbonyl-R110 fluorogenic substrate) in ZR-75-1 cells; type: cell-based; settings: human breast cancer cell line ZR-75-1, 24 hours incubation with compound, 3 hour substrate incubation; read-out: Caspase Potency EC50 (nM) ZR-75-1
Experimental: as §1, §2, §3, §4

EC50 (T-47D) [nM] | EC50 (ZR-75-1) [nM] | SMILES
345 | 163 | CSc1ccc(C2CC(c3c(O)cc(C)oc3=O)=NCCS2)cc1 (stereo not shown) [Compound 70, 4-hydroxy-6-methyl-3-[7-(4-methylsulfanyl-phenyl)-2,3,6,7-tetrahydro-[1,4]thiazepin-5-yl]-pyran-2-one]
6930 | 4210 | Cc1ccc(C2CC(c3c(O)cc(C)oc3=O)=Nc3ccccc3S2)cc1 (stereo not shown) [Compound 85, 4-hydroxy-6-methyl-3-(2-p-tolyl-2,3-dihydro-benzo[b][1,4]thiazepin-4-yl)-pyran-2-one]
3270 | 2080 | Cc1cc(O)c(C2=NCCSC(c3ccccc3Br)C2)c(=O)o1 (stereo not shown) [Compound 74, 3-[7-(2-bromo-phenyl)-2,3,6,7-tetrahydro-[1,4]thiazepin-5-yl]4-hydroxy-6-methyl-pyran-2-one]
557 | 349 | Cc1cc(O)c(C2=NCCSC(c3ccc(Cl)c(Cl)c3)C2)c(=O)o1 (stereo not shown) [Compound 79, 3-[7-(3,4-dichloro-phenyl)-2,3,6,7-tetrahydro-[1,4]thiazepin-5-yl]-4-hydroxy-6-methyl-pyran-2-one]
3050 | 1950 | COc1cccc(C2CC(c3c(O)cc(C)oc3=O)=NCCS2)c1 (stereo not shown) [Compound 72, 4-hydroxy-3-[7-(3-methoxy-phenyl)-2,3,6,7-tetrahydro-[1,4]thiazepin-5-yl]-6-methyl-pyran-2-one]
